From article PMC11123841, “Discovery and Synthesis of Hydroxy-L-Proline Blockers of the Neutral Amino Acid Transporters SLC1A4 (ASCT1) and SLC1A5 (ASCT2)” (Molecules, 2024) come the findings set out here.

Broadly, the Ki is a dissociation constant, usually derived from enzyme kinetics or from competition with a known ligand. Usually IC50 stands for the concentration that inhibits the measured activity by half.

Common to all, as to assay type: cell-based
For one assay, the target named is T1, mSLC1A5 (Mus musculus, UniProt P51912).
T1 construct: expressed in transfected cells; host or cells: Xenopus laevis oocytes (cRNA injection)
T1 sequence (P51912 1-553): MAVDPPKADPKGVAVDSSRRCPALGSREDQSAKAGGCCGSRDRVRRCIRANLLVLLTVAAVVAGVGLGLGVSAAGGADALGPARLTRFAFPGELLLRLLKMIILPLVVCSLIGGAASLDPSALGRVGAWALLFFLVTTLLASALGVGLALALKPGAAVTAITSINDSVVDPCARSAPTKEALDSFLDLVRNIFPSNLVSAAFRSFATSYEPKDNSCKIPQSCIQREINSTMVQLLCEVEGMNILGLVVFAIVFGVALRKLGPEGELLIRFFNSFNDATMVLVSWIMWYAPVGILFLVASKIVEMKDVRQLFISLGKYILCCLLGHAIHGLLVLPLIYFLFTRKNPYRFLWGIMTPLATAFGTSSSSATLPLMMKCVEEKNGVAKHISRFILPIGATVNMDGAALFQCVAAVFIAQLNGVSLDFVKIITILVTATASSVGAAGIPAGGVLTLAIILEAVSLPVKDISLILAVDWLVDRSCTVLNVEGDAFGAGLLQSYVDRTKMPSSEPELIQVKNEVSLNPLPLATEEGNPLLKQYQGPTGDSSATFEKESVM
The assay can be described thus: TEVC block of anion leak conductance in oocytes. The source says:
(§1) The currents induced by substrates and blocked by hydroxyproline analogs shared a reversal potential shown in the current/voltage relationship consistent with the conductance originating from the same ion pore (Figure 3, inset). […] The observed dose–response relationships are independent of competing substrates, and thus provide a direct measure of the equilibrium inhibition constant (Ki). Each synthetic hydroxyproline analog was functionally assessed for its capacity to inhibit SLC1A4 and SLC1A5 leak currents with affinities reported in Table 1 as determined or approximated Ki.
(§2) Two-electrode voltage clamp (TEVC) transporter currents were recorded with a GeneClamp 500 amplifier and Digidata 1320A analog–digital interface (Molecular Devices, San Jose, CA, USA). Electrodes (0.2–1.0 MΩ) were filled with 3M KCl and the recording chamber was grounded with an agar bridge. Data were acquired with Axograph (v1.7.6) and LabChart (v7) and analyzed with Kaleidagraph software (v4.1) (Synergy, Reading, PA, USA). Uncoupled anion currents associated with the transport of substrate and block of SLC1A4 or SLC1A5 mediated leak conductance were recorded in the presence of Ringer with 50% substitution of NaCl by NaSCN to amplify the non-transported anion conductance.
(§3) Figure 3 AHPCs block a leak current in SLC1A4 and SLC1A5. […] Inset (A): The current and voltage relationship for SLC1A4 currents activated by Ala or blocked by 14b are determined by subtracting voltage jumps in buffer.

A further assay concerns the target T2, SLC1A4 (Homo sapiens, UniProt P43007).
T2 construct: expressed in transfected cells; host or cells: Xenopus laevis oocytes (cRNA injection)
T2 sequence (P43007 1-532): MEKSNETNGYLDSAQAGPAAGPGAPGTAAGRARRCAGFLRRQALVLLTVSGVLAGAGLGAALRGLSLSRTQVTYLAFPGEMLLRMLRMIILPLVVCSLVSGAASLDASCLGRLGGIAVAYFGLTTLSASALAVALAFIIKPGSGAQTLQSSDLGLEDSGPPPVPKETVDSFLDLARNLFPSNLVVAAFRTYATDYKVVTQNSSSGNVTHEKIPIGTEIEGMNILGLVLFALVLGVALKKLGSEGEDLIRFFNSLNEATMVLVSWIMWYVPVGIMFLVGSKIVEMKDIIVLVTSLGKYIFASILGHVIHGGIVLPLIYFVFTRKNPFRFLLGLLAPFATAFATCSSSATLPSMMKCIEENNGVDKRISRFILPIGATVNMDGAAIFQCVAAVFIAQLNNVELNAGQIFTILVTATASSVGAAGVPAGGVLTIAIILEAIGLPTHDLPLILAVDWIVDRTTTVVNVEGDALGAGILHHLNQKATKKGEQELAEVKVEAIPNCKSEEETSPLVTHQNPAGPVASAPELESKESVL
Put plainly: TEVC block of anion leak conductance in oocytes.
From the text: as §1, §2, §3

A further assay addresses T3, SLC1A5 (Mus musculus, UniProt P51912).
T3 construct: expressed in transfected cells; host or cells: Xenopus laevis oocytes (cRNA injection)
T3 sequence (P51912 1-553): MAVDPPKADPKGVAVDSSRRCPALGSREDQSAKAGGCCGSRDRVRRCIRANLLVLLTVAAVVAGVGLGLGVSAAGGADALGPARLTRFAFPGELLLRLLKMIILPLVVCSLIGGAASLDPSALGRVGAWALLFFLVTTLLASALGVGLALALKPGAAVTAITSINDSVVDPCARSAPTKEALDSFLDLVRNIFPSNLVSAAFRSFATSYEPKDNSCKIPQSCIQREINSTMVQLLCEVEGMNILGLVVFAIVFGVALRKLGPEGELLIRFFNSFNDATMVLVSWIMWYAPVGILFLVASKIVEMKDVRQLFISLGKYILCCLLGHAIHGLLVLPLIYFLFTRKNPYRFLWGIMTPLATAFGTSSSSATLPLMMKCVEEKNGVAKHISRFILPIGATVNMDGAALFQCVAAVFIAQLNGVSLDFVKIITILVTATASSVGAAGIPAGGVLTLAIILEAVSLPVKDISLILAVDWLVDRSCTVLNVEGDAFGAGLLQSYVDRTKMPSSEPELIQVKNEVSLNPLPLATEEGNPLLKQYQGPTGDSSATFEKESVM
Put plainly: [3H]L-Gln radiolabeled uptake competition in oocytes. The conditions noted are these: 10 µM [3H]L-Gln uptake in SLC1A5; read-out: IC50, block of [3H]L-Gln uptake. Here is the method: Uptake was halted by washing 3 times with 4 °C ND96 buffer. Oocytes were then lysed in 0.1% Triton X-100, and radioactivity was counted via liquid scintillation. Dose response curves were generated by fitting fractional inhibition (I) to the expression I = Imax × [inhibitor]/([inhibitor] + IC50).
(A) SLC1A4 dose response curves for substrate activated anion currents using two-electrode voltage clamp of Xenopus lavies oocytes (−30 mV). […] (B) SLC1A5 dose response curve for substrate activated anion currents using two-electrode voltage clamp (−30 mV). […] Extracellular solutions contained 50 mM NaSCN.

[1] abbreviates: mSLC1A5, from dose–response of blocked anion conductance, compounds tested only once without standard error, read-out: SLC1A5 Ki.
Where [2] appears, read: from dose–response of blocked anion conductance, compounds tested only once without standard error, read-out: SLC1A4 Ki.

Like-named read-outs stand apart in the source and are kept apart here.

With `O=C(O)C1NCC(c2ccccc2)C1O` (stereo not shown) [10c], the Ki at mSLC1A5 (setting [1]) and at SLC1A4 (setting [2]) was around 600 µM in each case.

Turning to `O=C(O)C1NCC(Oc2ccccc2)C1O` [12c, (2S,3R,4S)-3-hydroxy-4-phenoxypyrrolidin-2-carboxylate], the Ki at mSLC1A5 (setting [1]) and on SLC1A4 (setting [2]) was around 150 µM in each case.

With `C[C@]1(O)CN[C@H](C(=O)O)C1` [compound 26, cis-4-methyl-trans-4-hydroxy-L-proline], at SLC1A4 (from dose–response of blocked anion conductance, compounds tested only once without standard error), the “SLC1A4 Ki (µM)” value is on record as “No Block”.

`CC(C)O[C@H]1CN[C@H](C(=O)O)[C@@H]1O` [17b]: the Ki on mSLC1A5 (setting [1]) is around 400 µM; at SLC1A4 (setting [2]), 505 ± 105 µM.

As to `O=C(O)[C@H]1NC[C@H](OCc2ccccc2)[C@H]1O` [17c, cis-3-hydroxy-trans-4-benzyloxy-L-proline], the Ki at mSLC1A5 (SLC1A5, read-out: Ki) was above 500 µM; on SLC1A4 (SLC1A4, read-out: Ki) it was above 500 µM.

As to `O=C(O)[C@H]1NCC[C@@H]1O` [3-HP, trans-3-hydroxy-L-proline], the concentration for half-maximal inhibition (IC50) on SLC1A5 was found to be 39 µM.

For the compound `O=C(O)C1NCC(Oc2ccccc2)C1O` (stereo not shown) [12a], the Ki on mSLC1A5 (setting [1]) came to 141 ± 20 µM; at SLC1A4 (setting [2]), 150 ± 43 µM.

As to `CC1C(O)CNC1C(=O)O` (stereo not shown) [10b], the Ki on mSLC1A5 (setting [1]) came out at 922 ± 316 µM; on SLC1A4 (setting [2]) it was 564 ± 149 µM.

Regarding `CO[C@H]1CN[C@H](C(=O)O)[C@@H]1O` [17a], the Ki on mSLC1A5 (SLC1A5, read-out: Ki) is above 500 µM; on SLC1A4 (SLC1A4, read-out: Ki), above 500 µM.
